Experiments:
[1] = administered to fasting patients; cited from earlier work
SARS-CoV-2 [2] = test: Syrian hamster SARS-CoV-2 infection model; format: in vivo; details: 60, 90 or 120 mg/kg per os once a day for 7 days
Procedure: The efficacy of cysteamine-pantetheine disulfide (compound 1) is assessed in the Syrian hamster model. Maximal clinical signs of rapid breathing, weight loss, histopathological changes from the initial exudative phase of diffuse alveolar damage with extensive apoptosis to the later proliferative phase of tissue repair, airway and intestinal involvement with virus nucleocapsid protein expression, high lung viral load, and spleen and lymphoid atrophy associated with marked cytokine activation are observed within the first week of virus challenge. The lung virus titer is between 10^5-10^7 TCID50/g. Challenged index hamsters can consistently infected naïve contact hamsters housed within the same cage, resulting in similar pathology but not weight loss. All infected hamsters can recover and develop mean serum neutralizing antibody titer ≥1:427 fourteen days post-challenge. Immunoprophylaxis with early convalescent serum can achieve significant decrease in lung viral load but not in lung pathology.
Three groups of 3 Syrian hamsters infected by SARS-CoV-2 per group receive cysteamine-pantetheine disulfide (compound 1) per os once a day for 7 days. The first group receives 60 mg/kg, second group 90 mg/kg and third group 120 mg/kg. Clinical status, biological parameters and viral load are characterized every day.

SARS-CoV-2 [3] = test: Single-dose/multiple dose open-label study in patients with COVID-19; format: in vivo, human; details: patients infected with SARS-CoV-2, end of study
Procedure: A single-dose/multiple dose, open-labeled, non-randomized, two-period study of Cysteamine-Pantetheine Disulfide (compound 1) in […] (male and female) with COVID-19 under fasting or fed conditions is performed. Prior to treatment, patients undergo screening to determine study eligibility (Day-1).
Pharmacodynamic Evaluations: SARS-CoV-2 viral load will be obtained from samples collected from Day 0 to Day 15 according to the Schedule of Events.

Row | SMILES | inter-patient variation in cysteamine plasma levels [1] | recovery (SARS-CoV-2 [2]) | symptoms of infection (SARS-CoV-2 [2]) | viral load (SARS-CoV-2 [2]) | risk of severe COVID-19 outcomes (pneumonitis, ARDS, respiratory failure, septic shock, organ failure, cytokine storm, death) (SARS-CoV-2 [3])
1 | NCCS [cysteamine, 2-aminoethanethiol] | up to four fold | – | – | – | –
2 | CC(C)(CO)[C@@H](O)C(=O)NCCC(=O)NCCSSCCN [compound 1, cysteamine-(R)-pantetheine disulfide] | – | more rapid recovery | less severe symptoms of infection | lower viral load | lower risk
